Source: the NIST ThermoML archive (doi:10.1016/j.jct.2016.08.026)

Test: xn = mol fraction of the nth substance listed
Conditions: 101 kPa, Liquid, Pycnometric method

C=CC(=O)OCCCC [butyl 2-propenoate] + CC#N
mass density [kg/m3]
Conditions	293.15 K	298.15 K	303.15 K	308.15 K	313.15 K	318.15 K
x2 = 0	898.85	894.1	889.35	884.6	879.85	875.1
x2 = 0.061	896.58	891.84	887.1	882.36	877.62	872.87
x2 = 0.1168	894.23	889.49	884.75	880.01	875.26	870.51
x2 = 0.1832	891.06	886.31	881.56	876.81	872.05	867.29
x2 = 0.2571	887.05	882.28	877.51	872.73	867.95	863.17
x2 = 0.3094	883.86	879.07	874.28	869.49	864.69	859.89
x2 = 0.3825	878.86	874.05	869.23	864.41	859.59	854.77
x2 = 0.4563	873.07	868.23	863.39	858.55	853.7	848.85
x2 = 0.5282	866.62	861.75	856.88	852.01	847.13	842.25
x2 = 0.5779	861.58	856.69	851.79	846.89	841.99	837.09
x2 = 0.6483	853.47	848.54	843.6	838.66	833.72	828.79
x2 = 0.7299	842.32	837.34	832.35	827.36	822.37	817.38
x2 = 0.8143	828.2	823.15	818.1	813.05	807.99	802.93
x2 = 0.9182	805.7	800.53	795.36	790.19	785.01	779.83

C=CC(=O)OCC [ethyl propenoate] + CC#N
mass density [kg/m3]
Conditions	293.15 K	298.15 K	303.15 K	308.15 K	313.15 K	318.15 K
x2 = 0	921.76	915.95	910.14	904.33	898.52	892.71
x2 = 0.0611	918.24	912.49	906.74	900.99	895.24	889.48
x2 = 0.1197	914.45	908.75	903.05	897.35	891.64	885.93
x2 = 0.1852	909.73	904.07	898.4	892.73	887.06	881.39
x2 = 0.2385	905.48	899.84	894.2	888.55	882.9	877.25
x2 = 0.2966	900.45	894.83	889.21	883.58	877.95	872.32
x2 = 0.3675	893.69	888.1	882.5	876.9	871.3	865.7
x2 = 0.436	886.46	880.89	875.32	869.75	864.18	858.61
x2 = 0.4982	879.23	873.69	868.15	862.61	857.07	851.53
x2 = 0.5745	869.38	863.88	858.38	852.88	847.38	841.87
x2 = 0.6519	858.1	852.64	847.18	841.72	836.26	830.8
x2 = 0.725	846	840.58	835.16	829.74	824.32	818.9
x2 = 0.8185	828.05	822.69	817.33	811.97	806.6	801.23
x2 = 0.9145	805.92	800.6	795.28	789.96	784.63	779.3

C=CC(=O)OC [methyl propenoate] + CC#N
mass density [kg/m3]
Conditions	293.15 K	298.15 K	303.15 K	308.15 K	313.15 K	318.15 K
x2 = 0	953.51	947.56	941.61	935.66	929.71	923.76
x2 = 0.0591	948.65	942.78	936.9	931.02	925.14	919.27
x2 = 0.1171	943.34	937.51	931.68	925.85	920.01	914.17
x2 = 0.17	938.02	932.22	926.42	920.62	914.81	909
x2 = 0.2356	930.83	925.06	919.29	913.52	907.75	901.97
x2 = 0.2977	923.4	917.66	911.92	906.18	900.43	894.68
x2 = 0.3615	915.12	909.41	903.7	897.99	892.28	886.56
x2 = 0.4343	904.86	899.19	893.52	887.85	882.17	876.49
x2 = 0.5014	894.57	888.94	883.31	877.67	872.03	866.39
x2 = 0.5738	882.48	876.9	871.32	865.73	860.14	854.55
x2 = 0.6537	867.83	862.31	856.79	851.26	845.73	840.2
x2 = 0.7623	845.33	839.89	834.45	829.01	823.57	818.13
x2 = 0.8155	833.04	827.65	822.26	816.87	811.47	806.07
x2 = 0.9074	809.47	804.14	798.81	793.47	788.13	782.79

C=CC(=O)OC(C)(C)C [tert-butyl acrylate] + CC#N
mass density [kg/m3]
Conditions	293.15 K	298.15 K	303.15 K	308.15 K	313.15 K	318.15 K
x2 = 0	884.13	879.66	875.2	870.74	866.28	861.82
x2 = 0.0772	881.52	877.05	872.58	868.11	863.64	859.17
x2 = 0.1496	878.71	874.23	869.74	865.25	860.76	856.27
x2 = 0.2216	875.53	871.02	866.51	861.99	857.47	852.95
x2 = 0.2983	871.66	867.11	862.56	858	853.44	848.88
x2 = 0.3643	867.87	863.28	858.69	854.1	849.51	844.91
x2 = 0.4345	863.31	858.68	854.05	849.42	844.78	840.14
x2 = 0.5074	857.88	853.2	848.52	843.84	839.16	834.47
x2 = 0.5769	851.91	847.18	842.45	837.72	832.98	828.24
x2 = 0.6465	844.97	840.18	835.39	830.6	825.8	821
x2 = 0.7141	837.1	832.24	827.38	822.52	817.66	812.8
x2 = 0.7821	827.76	822.83	817.9	812.96	808.02	803.08
x2 = 0.8603	814.71	809.68	804.64	799.6	794.56	789.51
x2 = 0.9345	799.24	794.08	788.92	783.75	778.58	773.41
